tested on: eNOS promoter; assay: Activation of eNOS transcription (eNOS promoter firefly luciferase reporter); assay type: cell-based; conditions: EC50 of transcription induction ratio (TIR) vs compound concentration, determined graphically; stably transfected human endothelial cell line, 18 h incubation
Protocol: Activation of eNOS transcription was measured as described in detail in Li et al. “Activation of protein kinase C alpha and/or epsilon enhances transcription of the human endothelial nitric oxide synthase gene”, Mol. Pharmacol. 1998; 53: 630-637. Briefly, a 3.5 kB long fragment 5′ of the starting codon of the eNOS gene was cloned, sequenced and cloned in firefly luciferase expression plasmids to monitor activation of the eNOS promoter by reporter gene activity. A human endothelial cell line stable transfected and expressing this promoter-reporter construct was used for compound testing. Cells were incubated for 18 h with compounds.
All compounds were dissolved in sterile DMSO. A final concentration of 0.5% DMSO in complete medium was allowed. Induction of reporter gene expression in these cells was measured using a standard luciferase assay system (Promega, Cat. No E150) according to the manufacturer's instructions. Luciferase induction in cells incubated with compounds were compared to those incubated with solvent alone. The ratio of both activities (transcription induction ratio, TIR) was plotted as a function of compound concentration. Typically, TIR values started at low concentrations at a ratio of 1, indicating no compound effect, and extended up to a maximum TIR value TIR(max) which indicates the increase of the eNOS transcription. EC50 values of transcription induction ratios as a function of compound concentration were determined graphically.

SMILES | EC50
O=C(N[C@@H]1CCc2cccc(Br)c2C1)c1ccc(F)cc1 [Compound 4, (R)-N-(8-Bromo-1,2,3,4-tetrahydro-naphth-2-yl)-4-fluoro-benzamide] | > 30 µM
O=C(N[C@H]1CCc2cccc(Br)c2C1)c1ccc(F)cc1 [Compound 5, (S)-N-(8-Bromo-1,2,3,4-tetrahydro-naphth-2-yl)-4-fluoro-benzamide] | 10 µM
CN(C)c1cccc(C(=O)N[C@@H]2CCc3ccccc3C2)c1 [Compound 10, 3-Dimethylamino-N-(R)-1,2,3,4-tetrahydro-naphthalen-2-yl-benzamide] | 9.56 µM
CN(C)c1cccc(C(=O)N[C@H]2CCc3ccccc3C2)c1 [Compound 11, 3-Dimethylamino-N-(S)-1,2,3,4-tetrahydro-naphthalen-2-yl-benzamide] | 12.8 µM
Cc1ccc(C(=O)N[C@@H]2CCc3ccccc3C2)cn1 [Compound 19, 6-Methyl-N-(R)-1,2,3,4-tetrahydro-naphthalen-2-yl-nicotinamide] | 10.9 µM
Cc1ccc(C(=O)N[C@H]2CCc3ccccc3C2)cn1 [Compound 20, 6-Methyl-N-(S)-1,2,3,4-tetrahydro-naphthalen-2-yl-nicotinamide] | 24.7 µM
O=C(N[C@H]1CCc2ccccc2C1)c1cccc2[nH]ccc12 [Compound 22, 1H-Indole-4-carboxylic acid-N-(S)-(1,2,3,4-tetrahydro-naphthalen-2-yl)-amide] | 8.82 µM
O=C(N[C@@H]1CCc2ccccc2C1)c1ccc2[nH]cnc2c1 [Compound 23, 1H-Benzoimidazole-5-carboxylic acid N-(R)-(1,2,3,4-tetrahydro-naphthalen-2-yl)-amide] | 11.5 µM
O=C(N[C@H]1CCc2ccccc2C1)c1ccc2[nH]nnc2c1 [Compound 26, 1H-Benzotriazole-5-carboxylic acid N-(S)-(1,2,3,4-tetrahydro-naphthalen-2-yl)-amide] | 15.1 µM
Cc1nc(C)c(C(=O)N[C@@H]2CCc3ccccc3C2)s1 [Compound 29, 2,4-Dimethyl-thiazole-5-carboxylic acid N-(R)-(1,2,3,4-tetrahydro-naphthalen-2-yl)-amide] | 10.5 µM
Cc1nc(C)c(C(=O)N[C@H]2CCc3ccccc3C2)s1 [Compound 30, 2,4-Dimethyl-thiazole-5-carboxylic acid N-(S)-(1,2,3,4-tetrahydro-naphthalen-2-yl)-amide] | 81.8 µM
Cc1c(C(=O)N[C@@H]2CCc3ccccc3C2)cnn1-c1ccccc1 [Compound 31, 5-Methyl-1-phenyl-1H-pyrazole-4-carboxylic acid N-(R)-(1,2,3,4-tetrahydro-naphthalen-2-yl)-amide] | 10.9 µM
O=C(N[C@@H]1CCc2ccccc2C1)c1cnn(-c2ccc(Cl)cc2)c1C(F)(F)F [Compound 33, 1-(4-Chloro-phenyl)-5-trifluoromethyl-1H-pyrazole-4-carboxylic acid N-(R)-(1,2,3,4-tetrahydro-naphthalen-2-yl)-amide] | 7 µM
O=C(N[C@H]1CCc2ccccc2C1)c1cnn(-c2ccc(Cl)cc2)c1C(F)(F)F [Compound 34, 1-(4-Chloro-phenyl)-5-trifluoromethyl-1H-pyrazole-4-carboxylic acid N-(S)-(1,2,3,4-tetrahydro-naphthalen-2-yl)-amide] | 9.97 µM
Cc1cnc(C(=O)N[C@@H]2CCc3ccccc3C2)cn1 [Compound 35, 5-Methyl-pyrazine-2-carboxylic acid N-(R)-(1,2,3,4-tetrahydro-naphthalen-2-yl)-amide] | 14.9 µM
Cc1ccc(C(=O)N[C@@H]2CCc3ccccc3C2)c(Cl)n1 [Compound 39, 2-Chloro-6-methyl-N-(R)-1,2,3,4-tetrahydro-naphthalen-2-yl-nicotinamide] | 28.3 µM
Cc1ccc(C(=O)N[C@H]2CCc3ccccc3C2)c(Cl)n1 [Compound 40, 2-Chloro-6-methyl-N-(S)-1,2,3,4-tetrahydro-naphthalen-2-yl-nicotinamide] | 13.6 µM
Cc1nc(-c2ccccc2)sc1C(=O)N[C@@H]1CCc2ccccc2C1 [Compound 41, 4-Methyl-2-phenyl-thiazole-5-carboxylic acid N-(R)-(1,2,3,4-tetrahydro-naphthalen-2-yl)-amide] | 20.4 µM
Cc1nc(-c2ccccc2)sc1C(=O)N[C@H]1CCc2ccccc2C1 [Compound 42] | 16 µM
Cc1cc(C)c(C(=O)N[C@@H]2CCc3ccccc3C2)c(N)n1 [Compound 43, 2-Amino-4,6-dimethyl-N-(R)-1,2,3,4-tetrahydro-naphthalen-2-yl-nicotinamide] | 20.6 µM
O=C(N[C@@H]1CCc2ccccc2C1)c1cc2sccc2nc1C(F)(F)F [Compound 47, 5-Trifluoromethyl-thieno[3,2-b]pyridine-6-carboxylic acid-N-(R)-(1,2,3,4-tetrahydro-naphthalen-2-yl)-amide] | 35.2 µM
O=C(N[C@@H]1CCc2ccccc2C1)c1ccc2cc[nH]c2c1 [Compound 48, 1H-Indole-6-carboxylic acid N-(R)-(1,2,3,4-tetrahydro-naphthalen-2-yl)-amide] | 15.6 µM

Stronger by EC50, values ahead:

EC50 | SMILES
2.2 µM | O=C(NC1CCc2ccccc2C1)c1ccc(F)cc1 (stereo not drawn) [Compound 1, 4-Fluoro-N-(1,2,3,4-tetrahydro-naphth-2-yl)-benzamide]
1.5 µM | COc1cccc2c1CC[C@@H](NC(=O)c1ccc(F)cc1)C2 [Compound 6, (R)-N-(5-Methoxy-1,2,3,4-tetrahydro-naphth-2-yl)-4-fluoro-benzamide]
6 µM | COc1cccc2c1CC[C@H](NC(=O)c1ccc(F)cc1)C2 [Compound 7, (S)-N-(5-Methoxy-1,2,3,4-tetrahydro-naphth-2-yl)-4-fluoro-benzamide]
5.93 µM | O=C(N[C@@H]1CCc2ccccc2C1)c1ccc(Cl)nc1 [Compound 14, 6-Chloro-N-(R)-1,2,3,4-tetrahydro-naphthalen-2-yl-nicotinamide]
1.96 µM | Nc1ncccc1C(=O)N[C@@H]1CCc2ccccc2C1 [Compound 17, 2-Amino-N-(R)-1,2,3,4-tetrahydro-naphthalen-2-yl-nicotinamide]
4.55 µM | O=C(N[C@@H]1CCc2ccccc2C1)c1ccc2[nH]nnc2c1 [Compound 25, 1H-Benzotriazole-5-carboxylic acid N-(R)-(1,2,3,4-tetrahydro-naphthalen-2-yl)-amide]
0.18 µM | Cc1ncccc1C(=O)N[C@@H]1CCc2ccccc2C1 [Compound 27, 2-Methyl-N-(R)-1,2,3,4-tetrahydro-naphthalen-2-yl-nicotinamide]
1.13 µM | Cc1c(C(=O)N[C@H]2CCc3ccccc3C2)cnn1-c1ccccc1 [Compound 32, 5-Methyl-1-phenyl-1H-pyrazole-4-carboxylic acid N-(S)-(1,2,3,4-tetrahydro-naphthalen-2-yl)-amide]
0.33 µM | Cc1cnc(C(=O)N[C@H]2CCc3ccccc3C2)cn1 [Compound 36, 5-Methyl-pyrazine-2-carboxylic acid N-(S)-(1,2,3,4-tetrahydro-naphthalen-2-yl)-amide]
0.29 µM | Cc1nc(C(F)(F)F)c(C(=O)N[C@@H]2CCc3ccccc3C2)s1 [Compound 45, 2-Methyl-4-trifluoromethyl-thiazole-5-carboxylic acid N-(R)-(1,2,3,4-tetrahydro-naphthalen-2-yl)-amide]
0.41 µM | Cc1nc(C(F)(F)F)c(C(=O)N[C@H]2CCc3ccccc3C2)s1 [Compound 46, 2-Methyl-4-trifluoromethyl-thiazole-5-carboxylic acid-N-(S)-(1,2,3,4-tetrahydro-naphthalen-2-yl)-amide]
